The values below are quoted from earlier work in patent US5610177A, “Acylated amino acids as endothelin antagonists” (Warner-Lambert Company, priority 1994, dated 1997).

One series has as its system ETA. The settings on record: cited from earlier work.
For series [1], the system named is ETA receptor. The settings on record: conscious rats; cited from earlier work.
For series [2], the system named is ETA receptor. The conditions noted are these: rats, i.v.; cited from earlier work.
Series [3] relates to Endothelin receptor. The conditions noted are these: rat model; cited from earlier work.
In series [4] the test system is Endothelin receptor. The settings on record: i.v., cited from earlier work.
The subject of series [5] is Endothelin receptor subtype-A. The conditions noted are these: intravenous infusion; cited from earlier work.
Series [6] concerns ETA receptor. The settings on record: rabbit retinal arteries, i.v.; cited from earlier work.
Series [7] concerns Endothelin receptor subtype-A. The settings on record: intravenous infusion, stroke prone spontaneous hypertensive rats; cited from earlier work.
For series [8] the following is noted: conditions of hypoglycemia; cited from earlier work.
In the next series the test system is liver. The settings on record: cited from earlier work.
The conditions of series [9]: local intra-arterial administration, rats; cited from earlier work.
For series [10] the following is noted: intracerebroventricular, rats; cited from earlier work.
The next series has as its system ETB. The conditions noted are these: isolated, endothelium-intact porcine pulmonary arteries; cited from earlier work.

Where a SMILES comes first, the peptide text is derived from it. Where no end group is shown, it is not given here. [ ]: non-standard residue; d: D form.

In the case of `Cc1noc(NS(=O)(=O)c2cccc3c(N(C)C)cccc23)c1C` [5-(Dimethylamino)-N-(3,4-dimethyl-5-isoxazolyl)-1-naphthalenesulfonamide], the oral antihypertensive effect entry in the series on ETA is on record as “oral antihypertensive effect”.
As to `CC(C)C[C@@H]1NC(=O)[C@@H](C(C)C)NC(=O)[C@@H]2CCCN2C(=O)[C@@H](CC(=O)O)NC(=O)[C@@H](Cc2c[nH]c3ccccc23)NC1=O` [BQ-123] (cyclo(L[dW][dD]P[dV])), the “antagonism of ET-1 induced pressor response” value with ETA receptor [1] is reported as “effective in antagonizing the ET-1 induced pressor response”. For the same molecule, the renal vascular resistance entry in the series with ETA receptor [2] is “blocked”. Further, the “acute CsA toxicity” value in the series on Endothelin receptor [3] is “suppressed”. The “mitochondrial Ca2+ accumulation” value in the series on Endothelin receptor [4] (early phase of ischemic acute renal failure in rats) is “prevents the mitochondrial [Ca^2+ ] accumulation”. For the same molecule, the “protection of proximal tubular cells” value in the series on Endothelin receptor [4] (ischemic acute renal failure in rats) is given as “protects proximal tubular cells from post-ischemic degeneration”. Moreover, the “prevention of acute hypoxia induced pulmonary hypertension” value in series [5] was “effective in the prevention of acute hypoxia induced pulmonary hypertension”. For the same molecule, in the series on ETA receptor [6], the ET-1 induced vasoconstriction result is on record as “blocked”. In addition, the blood pressure result in [7] is on record as “decreased blood pressure significantly”.
Turning to “ET-3: one of a family of structurally similar bicyclic peptides (CTCFTYKDKECVYYCHLDIIW; not fully specified (bridges); cysteine pairing not given here; UniProt P14138 97-117, looked up)”, in [8], the striatal damage result is recorded as “accelerate the development of striatal damage”.
Regarding Endothelin, the “hepatic vasoconstriction and glucose output” value in the series on liver is “sustained vasoconstriction of the hepatic vasculature and a significant increase in hepatic glucose output”. Moreover, in series [9], the “small intestinal mucosal damage” value is “induce small intestinal mucosal damage in rats in a dose-dependent manner”.
On to “Endothelin-1 (CSCSSLMDKECVYFCHLDIIW; not fully specified (bridges); cysteine pairing not given here; UniProt P05305 53-73, looked up) [ET-1]”, for which the behavioral effects result in series [10] is reported as “evoke several behavioral effects”.
Take “N-Acetyl-ET [N-Acetyl-ET [10-21,11,15-Ala]]”: in the series with ETB, the vasorelaxation result was “caused vasorelaxation”.
